Source: EP4707280A1, “1,4-CINEOLE DERIVATIVE AND INTERMEDIATE THEREOF, HERBICIDE CONTAINING SAID DERIVATIVE AS ACTIVE INGREDIENT, METHOD FOR USING HERBICIDE, AND METHOD FOR PREPARING AGROCHEMICAL COMPOSITION” (HOKKO CHEMICAL INDUSTRY CO., LTD., priority 2023, dated 2024)

How the values were obtained:
Type in all cases: in vivo
[1] = tested on: Echinochloa crus-galli var. formosensis; assay: Test Example 1: herbicidal effect test by soil application in paddy rice; conditions: Echinochloa crus-galli, soil, 336 h; 120 g active ingredient per 10 ares; applied immediately after sowing, flooded pots; 14 days after application; read-out: weed inhibition rate
Outline: (§1)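 Pre-emergence paddy treatment: diluted emulsifiable concentrate applied by dropper at 120 g a.i./10 ares immediately after sowing. Seeds (30 per species, 0–1 cm deep) in fertilized, puddled paddy soil kept under ~3 cm flood in a glass greenhouse.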

Scirpus juncoides = assay: as above; conditions: Schoenoplectiella juncoides, soil, 336 h; 120 g active ingredient per 10 ares; applied immediately after sowing, flooded pots; 14 days after application; read-out: weed inhibition rate
Outline: as §1

[2] = tested on: Echinochloa crus-galli var. formosensis; assay: Test Example 5: herbicidal effect test by soil application in paddy rice (low dose); conditions: Echinochloa crus-galli, soil, 336 h; 7.5 g per 10 ares; applied immediately after sowing, flooded pots; 14 days after application; read-out: weed inhibition rate
Outline: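 Pre-emergence paddy test: seeds sown 0–1 cm (30 each), pots flooded ~3 cm, greenhouse. EC dilution dropped into water right after sowing, 7.5 g a.i./10 a. Duplicate pots; weed inhibition rate (%) by formula, day 14.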

Echinochloa crus-galli [3] = assay: Test Example 4: herbicidal effect test by stem and leaf treatment in upland field; conditions: Echinochloa crus-galli; 120 g per 10 ares; sprayed seven days after sowing, upland soil; 14 days after application; read-out: weed inhibition rate
Echinochloa crus-galli [4] = assay: Test Example 7: herbicidal effect test by soil application in upland field (low dose); conditions: Echinochloa crus-galli, 7.5 g per 10 ares, sprayed one day after sowing, 14 days after application, read-out: weed inhibition rate
Outline: (§2)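 Read-out: weed inhibition rate (%) at 14 d post-treatment, duplicate pots per concentration. Seeds sown in the top 1 cm of upland alluvial loam; emulsifiable concentrate diluted in water and sprayed on the soil surface 1 d after sowing at 7.5 g a.i./10 a (100 L/10 a spray volume).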

Digitaria ciliaris [5] = assay: as above; conditions: Digitaria ciliaris, 7.5 g per 10 ares, sprayed one day after sowing, 14 days after application, read-out: weed inhibition rate
Outline: as §2

Digitaria ciliaris [6] = assay: Test Example 4: herbicidal effect test by stem and leaf treatment in upland field; conditions: Digitaria ciliaris; 120 g per 10 ares; sprayed seven days after sowing, upland soil; 14 days after application; read-out: weed inhibition rate
[7] = tested on: Echinochloa crus-galli var. formosensis; assay: Test Example 6: herbicidal effect test by application during growth period of paddy rice (low dose); conditions: Echinochloa crus-galli; 7.5 g per 10 ares; applied seven days after sowing, flooded pots; 14 days after application; read-out: weed inhibition rate
Outline: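 Emulsifiable concentrate, water-diluted, dropped onto flooded paddy pots 7 days post-sowing at 7.5 g active ingredient/10 a. Greenhouse-grown weeds; percent inhibition scored at day 14 after treatment.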

CC(C)[C@]12C[C@@H](OCc3c(F)cccc3F)[C@](C)(CC1C)O2 (stereo partly drawn) [1-111, (1S,2R,4R)-2-((2,6-difluorobenzyl)oxy)-4-isopropyl-1,5-dimethyl-7-oxabicyclo[2.2.1]heptane]
≥ 80%: pest or weed control at 1200 g/ha [1] | pest or weed control at 1200 g/ha (Scirpus juncoides) | inhibition at 75 g/ha [2] | inhibition at 1200 g/ha (Echinochloa crus-galli [3]) | inhibition at 75 g/ha (Echinochloa crus-galli [4]) | inhibition at 75 g/ha (Digitaria ciliaris [5]) | inhibition at 1200 g/ha (Digitaria ciliaris [6]) | inhibition at 75 g/ha [7]

CC(C)[C@]12C[C@@H](OCc3ccccc3F)[C@](C)(C[C@@H]1OS(=O)(=O)C(F)(F)F)O2 [1-525, (1R,2S,4S,5R)-5-((2-fluorobenzyl)oxy)-1-isopropyl-4-methyl-7-oxabicyclo[2.2.1]heptan-2-yl trifluoromethanesulfonate]
≥ 80%: pest or weed control at 1200 g/ha [1] | pest or weed control at 1200 g/ha (Scirpus juncoides) | inhibition at 75 g/ha [2] | inhibition at 1200 g/ha (Echinochloa crus-galli [3]) | inhibition at 75 g/ha (Digitaria ciliaris [5]) | inhibition at 1200 g/ha (Digitaria ciliaris [6]) | inhibition at 75 g/ha [7]

Cc1cccc(CO[C@@H]2C[C@]3(C(C)C)O[C@@]2(C)C[C@@H]3Br)c1 [1-680, (1S,2R,4R,5S)-5-bromo-1-methyl-2-[(3-methylphenyl)methoxy]-4-isopropyl-7-oxabicyclo[2.2.1]heptane]
≥ 80%: pest or weed control at 1200 g/ha [1] | pest or weed control at 1200 g/ha (Scirpus juncoides) | inhibition at 75 g/ha [2] | inhibition at 1200 g/ha (Echinochloa crus-galli [3]) | inhibition at 75 g/ha (Echinochloa crus-galli [4]) | inhibition at 75 g/ha (Digitaria ciliaris [5]) | inhibition at 1200 g/ha (Digitaria ciliaris [6]) | inhibition at 75 g/ha [7]

CC(C)[C@]12C[C@@H](OCc3c(F)cccc3Br)[C@](C)(C[C@@H]1Br)O2 [1-1600, (1S,2R,4R,5S)-5-bromo-2-[(2-bromo-6-fluorophenyl)methoxy]-1-methyl-4-isopropyl-7-oxabicyclo[2.2.1]heptane]
≥ 80%: pest or weed control at 1200 g/ha [1] | pest or weed control at 1200 g/ha (Scirpus juncoides) | inhibition at 75 g/ha [2] | inhibition at 1200 g/ha (Echinochloa crus-galli [3]) | inhibition at 75 g/ha (Echinochloa crus-galli [4]) | inhibition at 75 g/ha (Digitaria ciliaris [5]) | inhibition at 1200 g/ha (Digitaria ciliaris [6]) | inhibition at 75 g/ha [7]

CC(C)[C@]12C[C@@H](OCc3ccc(Cl)cc3Cl)[C@](C)(C[C@@H]1Br)O2 [1-717, (1S,2R,4R,5S)-5-bromo-2-[(2,4-dichlorophenyl)methoxy]-1-methyl-4-isopropyl-7-oxabicyclo[2.2.1]heptane]
≥ 80%: pest or weed control at 1200 g/ha [1] | pest or weed control at 1200 g/ha (Scirpus juncoides) | inhibition at 75 g/ha [2] | inhibition at 1200 g/ha (Echinochloa crus-galli [3]) | inhibition at 1200 g/ha (Digitaria ciliaris [6]) | inhibition at 75 g/ha [7]

COC1(OC)C[C@]2(C)O[C@@]1(C(C)C)C[C@H]2OCc1ccccc1F [1-935, (1R,4S,5R)-5-((2-fluorobenzyl)oxy)-1-isopropyl-2,2-dimethoxy-4-methyl-7-oxabicyclo[2.2.1]heptane]
≥ 80%: pest or weed control at 1200 g/ha [1] | pest or weed control at 1200 g/ha (Scirpus juncoides) | inhibition at 75 g/ha [2] | inhibition at 1200 g/ha (Echinochloa crus-galli [3]) | inhibition at 75 g/ha (Digitaria ciliaris [5]) | inhibition at 1200 g/ha (Digitaria ciliaris [6]) | inhibition at 75 g/ha [7]

CCOC(C)O[C@H]1C[C@]2(C)O[C@@]1(C(C)C)C[C@H]2OCc1c(F)cccc1F (stereo partly drawn) [1-223, (1S,2R,4R,5S)-2-((2,6-difluorobenzyl)oxy)-5-(1-ethoxyethoxy)-4-isopropyl-1-methyl-7-oxabicyclo[2.2.1]heptane]
≥ 80%: pest or weed control at 1200 g/ha [1] | pest or weed control at 1200 g/ha (Scirpus juncoides) | inhibition at 75 g/ha [2] | inhibition at 1200 g/ha (Echinochloa crus-galli [3]) | inhibition at 75 g/ha (Echinochloa crus-galli [4]) | inhibition at 75 g/ha (Digitaria ciliaris [5]) | inhibition at 1200 g/ha (Digitaria ciliaris [6]) | inhibition at 75 g/ha [7]

Cc1ccccc1CO[C@@H]1C[C@]2(C(C)C)O[C@@]1(C)C[C@@H]2Br [1-16, (1S,2R,4R,5S)-5-bromo-1-methyl-2-[(2-methylphenyl)methoxy]-4-isopropyl-7-oxabicyclo[2.2.1]heptane]
≥ 80%: pest or weed control at 1200 g/ha [1] | pest or weed control at 1200 g/ha (Scirpus juncoides) | inhibition at 75 g/ha [2] | inhibition at 1200 g/ha (Echinochloa crus-galli [3]) | inhibition at 75 g/ha (Echinochloa crus-galli [4]) | inhibition at 1200 g/ha (Digitaria ciliaris [6]) | inhibition at 75 g/ha [7]

CC(C)[C@]12C[C@@H](OCc3ccc(Cl)cc3)[C@](C)(C[C@@H]1Br)O2 [1-693, (1S,2R,4R,5S)-5-bromo-2-[(4-chlorophenyl)methoxy]-1-methyl-4-isopropyl-7-oxabicyclo[2.2.1]heptane]
≥ 80%: pest or weed control at 1200 g/ha [1] | pest or weed control at 1200 g/ha (Scirpus juncoides) | inhibition at 75 g/ha [2] | inhibition at 1200 g/ha (Echinochloa crus-galli [3]) | inhibition at 75 g/ha (Echinochloa crus-galli [4]) | inhibition at 1200 g/ha (Digitaria ciliaris [6]) | inhibition at 75 g/ha [7]

CC(C)[C@]12C[C@@H](OCc3cc(F)ccc3F)[C@](C)(CC1=O)O2 [2-18, (1R,4S,5R)-5-((2,5-difluorobenzyl)oxy)-1-isopropyl-4-methyl-7-oxabicyclo[2.2.1]heptan-2-one]
≥ 80%: pest or weed control at 1200 g/ha [1] | pest or weed control at 1200 g/ha (Scirpus juncoides) | inhibition at 75 g/ha [2] | inhibition at 1200 g/ha (Echinochloa crus-galli [3]) | inhibition at 75 g/ha (Echinochloa crus-galli [4]) | inhibition at 75 g/ha (Digitaria ciliaris [5]) | inhibition at 1200 g/ha (Digitaria ciliaris [6]) | inhibition at 75 g/ha [7]

CC(C)[C@]12C[C@@H](OCc3ccccc3C#N)[C@](C)(C[C@@H]1Br)O2 [1-703, 2-[[(1S,2R,4R,5S)-5-bromo-1-methyl-4-isopropyl-7-oxabicyclo[2.2.1]heptan-2-yl]oxymethyl]benzonitrile]
≥ 80%: pest or weed control at 1200 g/ha [1] | pest or weed control at 1200 g/ha (Scirpus juncoides) | inhibition at 75 g/ha [2] | inhibition at 1200 g/ha (Echinochloa crus-galli [3]) | inhibition at 75 g/ha (Echinochloa crus-galli [4]) | inhibition at 1200 g/ha (Digitaria ciliaris [6]) | inhibition at 75 g/ha [7]

CCOC(C)O[C@H]1C[C@]2(C)O[C@@]1(C(C)C)C[C@H]2OCc1ccccc1C (stereo partly drawn) [1-208, (1R,2S,4S,5R)-2-(1-ethoxyethoxy)-1-isopropyl-4-methyl-5-((2-methylbenzyl)oxy)-7-oxabicyclo[2.2.1]heptane]
≥ 80%: pest or weed control at 1200 g/ha [1] | pest or weed control at 1200 g/ha (Scirpus juncoides) | inhibition at 75 g/ha [2] | inhibition at 1200 g/ha (Echinochloa crus-galli [3]) | inhibition at 75 g/ha (Echinochloa crus-galli [4]) | inhibition at 75 g/ha (Digitaria ciliaris [5]) | inhibition at 1200 g/ha (Digitaria ciliaris [6]) | inhibition at 75 g/ha [7]

CCC1C[C@]2(C)O[C@@]1(C(C)C)C[C@H]2OCc1ccccc1F (stereo partly drawn) [1-126, (1R,4S,5R)-2-ethyl-5-[(2-fluorobenzyl)oxy]-1-isopropyl-4-methyl-7-oxabicyclo[2.2.1]heptane]
≥ 80%: pest or weed control at 1200 g/ha [1] | pest or weed control at 1200 g/ha (Scirpus juncoides) | inhibition at 75 g/ha [2] | inhibition at 1200 g/ha (Echinochloa crus-galli [3]) | inhibition at 75 g/ha (Echinochloa crus-galli [4]) | inhibition at 75 g/ha (Digitaria ciliaris [5]) | inhibition at 1200 g/ha (Digitaria ciliaris [6]) | inhibition at 75 g/ha [7]

Cc1ccc(CO[C@@H]2C[C@]3(C(C)C)O[C@@]2(C)C[C@@H]3Br)cc1 [1-681, (1S,2R,4R,5S)-5-bromo-1-methyl-2-[(4-methylphenyl)methoxy]-4-isopropyl-7-oxabicyclo[2.2.1]heptane]
≥ 80%: pest or weed control at 1200 g/ha [1] | pest or weed control at 1200 g/ha (Scirpus juncoides) | inhibition at 75 g/ha [2] | inhibition at 1200 g/ha (Echinochloa crus-galli [3]) | inhibition at 75 g/ha (Echinochloa crus-galli [4]) | inhibition at 1200 g/ha (Digitaria ciliaris [6]) | inhibition at 75 g/ha [7]

CC(C)[C@]12C[C@@H](OCc3c(Cl)cccc3Cl)[C@](C)(CC1=O)O2 [2-26, (1R,4S,5R)-5-((2,6-dichlorobenzyl)oxy)-1-isopropyl-4-methyl-7-oxabicyclo[2.2.1]heptan-2-one]
≥ 80%: pest or weed control at 1200 g/ha [1] | pest or weed control at 1200 g/ha (Scirpus juncoides) | inhibition at 75 g/ha [2] | inhibition at 1200 g/ha (Echinochloa crus-galli [3]) | inhibition at 75 g/ha (Echinochloa crus-galli [4]) | inhibition at 75 g/ha (Digitaria ciliaris [5]) | inhibition at 1200 g/ha (Digitaria ciliaris [6]) | inhibition at 75 g/ha [7]

CCC1C[C@]2(C)O[C@@]1(C(C)C)C[C@H]2OCc1ccccc1C (stereo partly drawn) [1-123, (1R,4S,5R)-2-ethyl-1-isopropyl-4-methyl-5-((2-methylbenzyl)oxy)-7-oxabicyclo[2.2.1]heptane]
≥ 80%: pest or weed control at 1200 g/ha [1] | inhibition at 75 g/ha [2] | inhibition at 1200 g/ha (Echinochloa crus-galli [3]) | inhibition at 75 g/ha (Digitaria ciliaris [5]) | inhibition at 1200 g/ha (Digitaria ciliaris [6]) | inhibition at 75 g/ha [7]

CC(C)[C@]12C[C@@H](OCc3ccc(F)cc3)[C@](C)(CC1=O)O2 [2-349, (1R,4S,5R)-5-((4-fluorobenzyl)oxy)-1-isopropyl-4-methyl-7-oxabicyclo[2.2.1]heptan-2-one]
≥ 80%: pest or weed control at 1200 g/ha [1] | pest or weed control at 1200 g/ha (Scirpus juncoides) | inhibition at 75 g/ha [2] | inhibition at 1200 g/ha (Echinochloa crus-galli [3]) | inhibition at 75 g/ha (Echinochloa crus-galli [4]) | inhibition at 75 g/ha (Digitaria ciliaris [5]) | inhibition at 1200 g/ha (Digitaria ciliaris [6]) | inhibition at 75 g/ha [7]
